# Data reported in US5789414A, “Pharmaceutical compositions comprising tetrahydropyrimidine derivates” (Yeda Research and Development Co. Ltd., priority 1992, dated 1998).
# Numbered stars: 1 amine (or outer) side, 2 acyl side, 3 side chain; on linkers, the order of the positions; unused ones are H or OH. Bridge positions count the residues as written; N and C are the ends. Square brackets hold non-standard residues; d marks the D form. Peptide text beside a SMILES is read from it. I, II: the chains in the order shown. Actinocin(9to1) = Cc1c2oc3c(C)ccc(C(=O)[*:1])c3nc-2c(C(=O)[*:2])c(N)c1=O; NMeV = CN[C@H](C(=O)O)C(C)C; Sar = CNCC(=O)O
# Key:
# [1] = tested on: RNA polymerase II from HeLa cells; experiment: In vitro transcription of dCMP-tailed template, RNA polymerase II; format: biochemical, mammalian; conditions: for effect of the THP by itself on the transcription reactions: lanes 2, 6, 10
# Method: FIG. 5 is a radiogram showing the inhibition of RNA polymerase II transcription by Act D and its resumption due to the addition of THP(A) and THP(B). Relative intensities of the bands were determined as in Table 6. The concentration of the DNA was 71.4 μM.
# (§1) The inhibition of RNA polymerase transcription caused by Act D binding to DNA was studied using the system described in Kadesch and Chamberlin, 1982, in which purified RNA polymerases from mammalian cells, such as RNA polymerases I, II and II from HeLa cells, are able to transcribe defined dCMP-tailed DNA templates efficiently and specifically. The dCMP-tailed DNA system allows quantitative studies of transcription reactions by the polymerase protein itself in the absence of other protein factors, and is thus an appropriate system to analyze the direct effect of DNA-binding drugs on the transcription process, and the protective effect of THP(A) and THP(B) on transcription in the presence of Act D.
# (§2) DNA-dependent RNA polymerases I, II and III from HeLa cells (pol I, pol II and pol III, respectively) were purified by a method which is a modification of the procedure described by Hodo and Blatti, 1977.
# (§3) The templates DNA were linearized by restriction enzyme Pst I generating a 3' protruding end, and tailed at both ends with dCTP by using terminal transferase (Boehringer Mannheim). Following ethanol precipitation, the dCMP-tailed DNAs were digested with a second restriction enzyme, and the selected tailed fragment was purified from agarose gel as described by Kadesch and Chamberlin, 1982.
# Transcription reaction mixtures were incubated in 15 μl of transcription buffer containing 70 mM Tris-HCl (pH 7.9), 0.1M NH4 Cl, 6 mM MgCl2, 5 mM spermidine, 10% glycerol, 0.15 mM dithriothreitol, 0.6 μg of dCMP-tailed template, and 0.5 μl of HeLa RNA polymerase (3u) at 30° C. for 10 min. Pulse buffer (3.5 μl) containing 4.3 mM of ATP, GTP and CTP, and 170 μM UTP, 20 μCi of [α-^32 P]UTP was added to the transcription reaction mixture for 20 seconds incubation. Transcription elongation then took place by adding 1.5 μl of chase buffer containing 7 mM UTP in the presence or absence of 0.06 μg Act D. Transcription elongation was carried out for 10 min and was then stopped by addition of proteinase K buffer (0.6% SDS; 25 mM Tris pH 7.9; 25 mM EDTA final concentration) 200 μg/ml proteinase K, and 30 μg of tRNA, and incubated for 25 min at 65° C. The sample was ethanol precipitated, pellet was resuspended in loading buffer (90% formamide; 0.5×Tris borate buffer) and subjected to 6% polyacrylamide--urea gel electrophoresis. The autoradiogram of the gel was analyzed by molecular dynamics computing densitometer to determine the relative intensities of the bands. (Nucleoside triphosphates and tRNA were purchased from Sigma, proteinase K from Boehringer Mannheim, and [α-^32 P]CTP (400 Ci/mmol) from Amersham International, United Kingdom).
# The sensitivity of the three RNA polymerases from HeLa cells to various concentrations of Act D was determined, using the purified polymerases and a dCMP-tailed template of 225 bp for pol I and of 420 bp for pol II and pol III. These templates are expected to give runoff transcripts of 225 and 420 nucleotides, respectively, since RNA polymerase initiates transcription at discrete sites at the single-stranded tail double stranded duplex junction. In all experiments a pulse-chase protocol was used.
# It was figured that the concentration of the THP(A)+THP(B) required to prevent binding of Act D to DNA would be higher than that of Act D, since they are expected to protect the DNA in general and not necessarily at d(GpC) base pair (bp), whereas the concentration of Act D is related to the d(GpC) content of the DNA. […] Yet when THP(A) and THP(B) were added together in a ratio of 1:1, their effect was dramatic. At a concentration of 200 μM there was a recovery of 75% of transcription in the presence of 2.5 μM Act D, which by itself would have inhibited 97% of the reaction. […]
# [2] = Toxicity on administration to mice; format: in vivo; conditions: doses of 1, 10 and 100 mg/100 g body weight
# Source text: (§4) THP(A) and THP(B) are not toxic to mammals.
# E. coli = E. coli growth under high salt or in the presence of adriamycin; format: cell-based; conditions: conditions which otherwise prevent E. coli growth
# [3] = tested on: gram positive and gram negative bacteria; experiment: Antibiotic activity test on bacterial cultures; format: cell-based; conditions: several cultures of gram positive and gram negative bacteria
# Source text: as §4
# HL60 cells = experiment: [3H] thymidine incorporation (DNA synthesis) in HL60 cells; format: cell-based; conditions: Homo sapiens, HL-60, read-out: inhibition of [3H] thymidine incorporation
# Method: FIG. 6 illustrates reversal of adriamycin inhibition of DNA synthesis due to THPs. It depicts a schematic presentation of percent [^3 H] thymidine incorporated versus adriamycin concentration according to the table below the scheme. Empty squares--[^3 H] thymidine incorporation versus adriamycin concentration. Filled squares--[^3 H] thymidine incorporation versus adriamycin concentration in the presence of THPs (100 μg/ml).
# HL60 cells were grown in RPMI medium (Gibco) containing 10% fetal calf serum (Biological Laboratories--Bet Haemek) in microwell plates (Nunc). Cells were suspended in medium at a concentration of 2×10^5 cells per ml and dispersed into the wells of the plates in 100 μl aliquots. Following 20 hrs of incubation at 37° C., the cells were treated with THPs (100 μg/ml) and adriamycin at increasing concentrations as indicated in FIG. 6. After 24 hrs [^3 H] thymidine was added (1 μCi/well, […]) for a duration of 3 hrs. Thymidine incorporation was stopped by addition of 25 μl trichloroacetic acid (TCA) at 20%, and the plates were placed at 4° C. overnight. TCA precipitates were washed with 10% TCA (100 μl), solubilized in 100 μl 1N NaOH and transferred to vials for counting in the presence of 3 ml scintillation solution containing toluene:Lumax (Lumac, The Netherlands) (3:2) mix. Assays were performed in triplicates.
# [4] = tested on: RNA polymerase III from HeLa cells; experiment: In vitro transcription of dCMP-tailed template, RNA polymerase III; format: biochemical, mammalian
# Source text: as §1, §2, §3
# (§5) Transcription reaction mixtures were incubated in 15 μl of transcription buffer containing 70 mM Tris-HCl (pH 7.9), 0.1M NH4 Cl, 6 mM MgCl2, 5 mM spermidine, 10% glycerol, 0.15 mM dithriothreitol, 0.6 μg of dCMP-tailed template, and 0.5 μl of HeLa RNA polymerase (3u) at 30° C. for 10 min. […] The autoradiogram of the gel was analyzed by molecular dynamics computing densitometer to determine the relative intensities of the bands. […]
# (§6) The sensitivity of the three RNA polymerases from HeLa cells to various concentrations of Act D was determined, using the purified polymerases and a dCMP-tailed template of 225 bp for pol I and of 420 bp for pol II and pol III. […]
# [5] = tested on: HeLa whole cell extract (WCE); experiment: In vitro transcription using HeLa whole cell extract (WCE); format: biochemical
# Method: The DNA was preincubated with THPs (A+B) at increasing concentrations for 20 min at 30° C., actinomycin D was then added at a concentration of 0.4 μg/ml. Following 20 min of incubation, WCE (10 μl) was added for incubation of 20 min at 30° C. Radioactive nucleotide mix was then added for a pulse of 5 min followed by addition of chase mix containing 10 mM CTP. Transcription proceeded for 30 min at 30° C. and was then stopped. […] Lane M--molecular weight markers. Lane C--control reaction without […] or THPs. Lanes of reaction with 0.4 μg/ml actinomycin D are marked (+), lanes of increasing concentrations of THPs (0, 5, 10, 20, 50, 100, 200, 500 μg/ml) are also marked above the lanes.
# A 20-μl reaction contained 10 μl WCE, 1 μg DNA, 4 mM creatine phosphate, 500 μM ATP, GTP, UTP, 50 μM CTP, 20 μCi of [α-^32 P]CTP, and transcription was performed at 30° C. All reactions were preincubated 20 min before the addition of the nucleotide mixture; 3 min after the addition of radioactive nucleotides, (pulse), chase mix containing 10 mM unlabelled CTP was added and transcription proceeded for additional 20 min.
# [6] = tested on: RNA polymerase I from HeLa cells; experiment: In vitro transcription of dCMP-tailed template, RNA polymerase I; format: biochemical, mammalian
# Source text: as §1, with “D. […]” for “D.”
# as §5, §6
# d(ATGCAT) = experiment: 1H NMR titration: equilibrium binding of Act D to d(ATGCAT) in presence and absence of THPs; conditions: no THPs
# Source text: Expanded views of (a) and (a') are shown in spectra (A) and (A'), respectively of FIG. 4(b). The spectra were obtained at pH 7 (as in FIG. 3).
# (c) Binding of Act D to d(ATGCAT). The binding of Act D to free oligonucleotide and to the oligonucleotide-THPs complex have been investigated by the ^1 H NMR titration technique.
# The equilibrium binding properties of Act D-d(ATGCAT) in the presence and absence of the THPs (Table 4) were derived from the proton peak area ratios of the free hexamer to the bound Act D-hexamer.
# [7] = tested on: RNA polymerases I, II and III from HeLa cells; experiment: In vitro transcription of dCMP-tailed template, summary for the three polymerases; format: biochemical, mammalian; conditions: pol I
# Source text: as §1, §5, §6
# enzymes = conditions: e.g. against heating, freezing and drying; cited from earlier work
# [8] = THP 10 μg/ml (66 μM, 60 μM printed for THP(B)), Act D 3 μg/ml [2.5 μM]
# [9] = THP 30 μg/ml (200 μM), Act D 3 μg/ml [2.5 μM]
# [10] = THP 60 μg/ml (400 μM), Act D 3 μg/ml [2.5 μM]
# [11] = THP 60 μg/ml (400 μM), without Act D
smiles,measurement,setting,value
"CC1=NCC(O)C(C(=O)O)N1 (stereo not drawn) [THP(A), 2-methyl-4-carboxy-5-hydroxy-3,4,5,6-tetrahydropyrimidine]",% transcription,[1]; [8],0.2%
same,% transcription,[1]; [9],0.5%
same,% transcription,[1]; [10],1.5%
same,% transcription,[1]; [11],100%
same,effect of the THP by itself on the transcription reactions,[1]; without Act D,did not inhibit the transcription reactions
same,toxic effects,[2],no toxic effects
same,growth of E. coli in the presence of adriamycin,E. coli,enable efficient growth of E. coli
same,growth of E. coli under high salt concentrations,E. coli,enable efficient growth of E. coli
same,antibiotic activity,[3],do not have antibiotic activity
COc1cccc2c1C(=O)c1c(O)c3c(c(O)c1C2=O)C[C@@](O)(C(=O)CO)C[C@@H]3O[C@H]1C[C@H](N)[C@H](O)[C@H](C)O1 [adriamycin],inhibition at 0.01 µg/mL,HL60 cells,30%
same,inhibition at 0.02 µg/mL,HL60 cells,40%
"Cc1c2oc3c(C)ccc(C(=O)N[C@@H]4C(=O)N[C@H](C(C)C)C(=O)N5CCC[C@H]5C(=O)N(C)CC(=O)N(C)[C@@H](C(C)C)C(=O)O[C@@H]4C)c3nc-2c(C(=O)N[C@@H]2C(=O)N[C@H](C(C)C)C(=O)N3CCC[C@H]3C(=O)N(C)CC(=O)N(C)[C@@H](C(C)C)C(=O)O[C@@H]2C)c(N)c1=O [Act D, Actinomycin D] (I: T[dV]P[Sar][NMeV] / II: T[dV]P[Sar][NMeV]; ester I:1-I:C, II:1-II:C; linker I:N-II:N via Actinocin(9to1))",inhibition of transcription,[1]; Act D 2.5 μM (3 μg/ml) by itself,97%
same,% transcription,"[1]; Act D 3 μg/ml [2.5 μM], THP 0",0.2%
same,Percentage of residual transcription,[1]; Actinomycin-D 1 μg/ml,22%
same,Percentage of residual transcription,[1]; Actinomycin-D 4 μg/ml,3%
same,Percentage of residual transcription,[1]; Actinomycin-D 5 μg/ml,3%
same,Percentage of residual transcription,[4]; Actinomycin-D 1 μg/ml,13%
same,Percentage of residual transcription,[4]; Actinomycin-D 3 μg/ml,3%
same,Percentage of residual transcription,[4]; Actinomycin-D 5 μg/ml,0.1%
same,inhibition of the transcription reaction,[5]; Act D alone at 0.4 μg/ml,80%
same,residual transcription,"[5]; actinomycin D alone, 0.4 μg/ml",20%
same,Percentage of residual transcription,[6]; Actinomycin-D 1 μg/ml,16%
same,Percentage of residual transcription,[6]; Actinomycin-D 5 μg/ml,3%
same,d(ATGCAT) (free/bound),d(ATGCAT); molar ratio Act D/d(ATGCAT) 0.16,4.9
same,d(ATGCAT) (free/bound),d(ATGCAT); molar ratio Act D/d(ATGCAT) 0.32,1.7
same,d(ATGCAT) (free/bound),d(ATGCAT); molar ratio Act D/d(ATGCAT) 0.48,0.8
same,d(ATGCAT) (free/bound),d(ATGCAT); molar ratio Act D/d(ATGCAT) 0.64,0.4
same,residual transcription,[7]; 1 μg/ml Act D added with the chase,10-20%
same,residual transcription,[7]; Act D 3-5 μg/ml,0.1-3%
"CC1=NCC[C@@H](C(=O)O)N1 [THP(B), 2-methyl-4-carboxy-3,4,5,6-tetrahydropyrimidine]",% transcription,[1]; [8],1.0%
same,% transcription,[1]; [9],2.7%
same,% transcription,[1]; [10],5.1%
same,% transcription,[1]; [11],100%
same,effect of the THP by itself on the transcription reactions,[1]; without Act D,did not inhibit the transcription reactions
same,protective effect on enzymes,enzymes,protective effect on enzymes
same,antibiotic activity,[3],do not have antibiotic activity
